Experimental data from US7854753B2, “Photokinetic delivery of biologically active substances using pulsed incoherent light” (Photokinetix, Inc., priority 2002, dated 2010).

What was measured:
[1] = volume of water for 1 g; cited from earlier work
[2] = Franz skin diffusion cell permeation (percutaneous absorption) under ambient, natural or pulsed incoherent LED light; conditions: for Permeation Dark: ambient light absent; for Ctrl / Ctrl-TiO2: Table 8 (405 nm series); for Ctrl: ambient light only; for Ctrl-TiO2 / Effect of 2% (w/w) TiO2 on permeation: ambient light; for Ctrl-TiO2: 2% TiO2; for Ctrl-TiO2/1.7 / Ctrl-TiO2/9.7 / Ctrl-TiO2/24: Table 8, 405 nm series; for Ctrl-TiO2/1.7: 2% TiO2, 1.7 cps; for Ctrl-TiO2/9.7: 2% TiO2, 9.7 cps; for Ctrl-TiO2/24: 2% TiO2, 24 cps; for 405/1.7 / 405/9.7 / 405/24: Table 8; for 405/1.7 / Permeation 1.7 cps: 1.7 cps; for 405/9.7 / Permeation 9.7 cps: 9.7 cps; for 405/24: 24 cps; for Permeation Ctrl: ambient cool fluorescent light only, 260-750 nm, 120 cps; for Permeation Ctrl-TiO2: ambient fluorescent light, sample with 2% (w/w) rutile TiO2; for Effect of 2% (w/w) TiO2 on permeation: FIG. 4; for Permeation 350 / Permeation 405: 75% duty cycle

Cc1ncc(CO)c(CO)c1O [Compound 5, Pyridoxine]
Water Solubility (1 g) [1]: 4.5 mL | Permeation Dark ([2]; Dark control): 261.30 μg/0.64 cm^2/25 hrs | Ctrl [2]: 32.90 | Ctrl-TiO2 [2]: 806.25 | Ctrl-TiO2/1.7 [2]: 537.60 | Ctrl-TiO2/9.7 [2]: 862.75 | Ctrl-TiO2/24 [2]: 0.00 | 405/1.7 ([2]; 405 nm): 179.38 | 405/9.7 ([2]; 405 nm): 0.00 | 405/24 ([2]; 405 nm): 187.81 | Permeation Ctrl [2]: 32.90 μg/0.64 cm^2/25 hrs | Permeation Ctrl-TiO2 [2]: 806.20 μg/0.64 cm^2/25 hrs | Effect of 2% (w/w) TiO2 on permeation [2]: significant effect

O=C(O)c1cccnc1 [Compound 6, Nicotinic acid]
Water Solubility (1 g) [1]: 60 mL | Permeation Dark ([2]; Dark control): 976.30 μg/0.64 cm^2/25 hrs | Ctrl [2]: 0.00 | Ctrl-TiO2 [2]: 1371.00 | Permeation Ctrl [2]: 0.00 μg/0.64 cm^2/25 hrs | Permeation Ctrl-TiO2 [2]: 1371.00 μg/0.64 cm^2/25 hrs | Effect of 2% (w/w) TiO2 on permeation [2]: significant effect

Cn1cnc2c1c(=O)[nH]c(=O)n2C [Compound 7, Theobromine]
Water Solubility (1 g) [1]: 2000 mL

Cn1c(=O)c2[nH]cnc2n(C)c1=O [Compound 8, Theophylline]
Water Solubility (1 g) [1]: 120 mL

NC(=O)c1cccnc1 [Compound 10, Nicotinamide]
Water Solubility (1 g) [1]: 1 mL | Permeation Dark ([2]; Dark control): 543.70 μg/0.64 cm^2/25 hrs | Ctrl [2]: 42.72 | Ctrl-TiO2 [2]: 851.83 | Ctrl-TiO2/1.7 [2]: 668.31 | Ctrl-TiO2/9.7 [2]: 1387.33 | Ctrl-TiO2/24 [2]: 0.00 | 405/1.7 ([2]; 405 nm): 26.22 | 405/9.7 ([2]; 405 nm): 32.69 | 405/24 ([2]; 405 nm): 0.00 | Permeation Ctrl [2]: 42.72 μg/0.64 cm^2/25 hrs | Permeation Ctrl-TiO2 [2]: 851.80 μg/0.64 cm^2/25 hrs | Effect of 2% (w/w) TiO2 on permeation [2]: significant effect

C[C@]12CCC(=O)C=C1CC[C@@H]1[C@@H]2CC[C@@]2(C)[C@H]1CC[C@]2(C)O [Compound 17, Methyl Testosterone]
Water Solubility (1 g) [1]: Insoluble | Permeation 350 ([2]; 350 nm LED, pulse rate 24 cps): 153.25 μg/0.64 cm^2/25 hrs | Permeation 1.7 cps ([2]; 350 nm): 12.84 μg/0.64 cm^2/25 hrs | Permeation 9.7 cps ([2]; 350 nm): 29.57 μg/0.64 cm^2/25 hrs | Permeation 405 ([2]; 405 nm LED, pulse rate 24 cps): 25.37 μg/0.64 cm^2/25 hrs | Permeation Dark ([2]; Dark control): 0.00 μg/0.64 cm^2/25 hrs | Permeation Ctrl [2]: 0.00 μg/0.64 cm^2/25 hrs | Permeation Ctrl-TiO2 [2]: 0.00 μg/0.64 cm^2/25 hrs

CC(=O)[C@H]1CC[C@H]2[C@@H]3CCC4=CC(=O)CC[C@]4(C)[C@H]3CC[C@]12C [Compound 18, Progesterone]
Water Solubility (1 g) [1]: Insoluble | Permeation 350 ([2]; 350 nm LED, pulse rate 24 cps): 149.91 μg/0.64 cm^2/25 hrs | Permeation 1.7 cps ([2]; 350 nm): 2.58 μg/0.64 cm^2/25 hrs | Permeation 9.7 cps ([2]; 350 nm): 2.80 μg/0.64 cm^2/25 hrs | Permeation 405 ([2]; 405 nm LED, pulse rate 24 cps): 6.19 μg/0.64 cm^2/25 hrs | Permeation Dark ([2]; Dark control): 0.00 μg/0.64 cm^2/25 hrs | Permeation Ctrl [2]: 0.00 μg/0.64 cm^2/25 hrs | Permeation Ctrl-TiO2 [2]: 0.00 μg/0.64 cm^2/25 hrs

C[C@@H]1[C@H](O)[C@@H](C)/C=C/C=C/C=C/C=C/C=C/C=C/C=C/[C@H](O[C@@H]2O[C@H](C)[C@@H](O)[C@H](N)[C@@H]2O)C[C@@H]2O[C@](O)(C[C@@H](O)C[C@@H](O)[C@H](O)CC[C@@H](O)C[C@@H](O)CC(=O)O[C@H]1C)C[C@H](O)[C@H]2C(=O)O [Compound 21, Amphotericin B]
% Permeation (percent increase or decrease vs dark baseline, equation 1) ([2]; 350 + TiO2, 8 cps vs Dark-TiO2): 49.51% | % Permeation (percent increase or decrease vs dark baseline, equation 1) ([2]; 350 + TiO2, 24 cps vs Dark-TiO2): 71.32% | % Permeation (percent increase or decrease vs dark baseline, equation 1) ([2]; 350 + TiO2, 80 cps vs Dark-TiO2): 18.24% | Permeation ([2]; 350 + TiO2, pulse rate 8 cps): 1.54 μg/cm^2/24 hrs | Permeation ([2]; 350 + TiO2, pulse rate 24 cps): 2.33 μg/cm^2/24 hrs | Permeation ([2]; 350 + TiO2, pulse rate 80 cps): 2.01 μg/cm^2/24 hrs | Permeation ([2]; 350 nm LED, pulse rate 8 cps): 1.19 μg/cm^2/24 hrs | Permeation ([2]; 350 nm LED, pulse rate 24 cps): 3.35 μg/cm^2/24 hrs | Permeation ([2]; 350 nm LED, pulse rate 80 cps): 2.81 μg/cm^2/24 hrs | % Permeation (percent increase or decrease vs dark baseline, equation 1) ([2]; 350 nm, 8 cps vs Dark): 60.81% | % Permeation (percent increase or decrease vs dark baseline, equation 1) ([2]; 350 nm, 24 cps vs Dark): 66.67% | % Permeation (percent increase or decrease vs dark baseline, equation 1) ([2]; 350 nm, 80 cps vs Dark): −11.36% | % Permeation (percent increase or decrease vs dark baseline, equation 1) ([2]; 390 + TiO2, 8 cps vs Dark-TiO2): 91.26% | % Permeation (percent increase or decrease vs dark baseline, equation 1) ([2]; 390 + TiO2, 24 cps vs Dark-TiO2): 48.53% | % Permeation (percent increase or decrease vs dark baseline, equation 1) ([2]; 390 + TiO2, 80 cps vs Dark-TiO2): 241.18% | Permeation ([2]; 390 + TiO2, pulse rate 8 cps): 1.97 μg/cm^2/24 hrs | Permeation ([2]; 390 + TiO2, pulse rate 24 cps): 2.02 μg/cm^2/24 hrs | Permeation ([2]; 390 + TiO2, pulse rate 80 cps): 5.80 μg/cm^2/24 hrs | Permeation ([2]; 390 nm LED, pulse rate 8 cps): 1.11 μg/cm^2/24 hrs | Permeation ([2]; 390 nm LED, pulse rate 24 cps): 1.88 μg/cm^2/24 hrs | Permeation ([2]; 390 nm LED, pulse rate 80 cps): 3.94 μg/cm^2/24 hrs | % Permeation (percent increase or decrease vs dark baseline, equation 1) ([2]; 390 nm, 8 cps vs Dark): 50.00% | % Permeation (percent increase or decrease vs dark baseline, equation 1) ([2]; 390 nm, 24 cps vs Dark): −6.47% | % Permeation (percent increase or decrease vs dark baseline, equation 1) ([2]; 390 nm, 80 cps vs Dark): 24.29% | % Permeation (percent increase or decrease vs dark baseline, equation 1) ([2]; 405 + TiO2, 8 cps vs Dark-TiO2): 33.01% | % Permeation (percent increase or decrease vs dark baseline, equation 1) ([2]; 405 + TiO2, 24 cps vs Dark-TiO2): 817.65% | % Permeation (percent increase or decrease vs dark baseline, equation 1) ([2]; 405 + TiO2, 80 cps vs Dark-TiO2): 180.59% | Permeation ([2]; 405 + TiO2, pulse rate 8 cps): 1.37 μg/cm^2/24 hrs | Permeation ([2]; 405 + TiO2, pulse rate 24 cps): 12.48 μg/cm^2/24 hrs | Permeation ([2]; 405 + TiO2, pulse rate 80 cps): 4.77 μg/cm^2/24 hrs | Permeation ([2]; 405 nm LED, pulse rate 8 cps): 1.26 μg/cm^2/24 hrs | Permeation ([2]; 405 nm LED, pulse rate 24 cps): 1.83 μg/cm^2/24 hrs | Permeation ([2]; 405 nm LED, pulse rate 80 cps): 7.23 μg/cm^2/24 hrs | % Permeation (percent increase or decrease vs dark baseline, equation 1) ([2]; 405 nm, 8 cps vs Dark): 70.27% | % Permeation (percent increase or decrease vs dark baseline, equation 1) ([2]; 405 nm, 24 cps vs Dark): −8.96% | % Permeation (percent increase or decrease vs dark baseline, equation 1) ([2]; 405 nm, 80 cps vs Dark): 129.65% | % Permeation (percent increase or decrease vs dark baseline, equation 1) ([2]; 450 + TiO2, 8 cps vs Dark-TiO2): 110.68% | % Permeation (percent increase or decrease vs dark baseline, equation 1) ([2]; 450 + TiO2, 24 cps vs Dark-TiO2): 8.82% | % Permeation (percent increase or decrease vs dark baseline, equation 1) ([2]; 450 + TiO2, 80 cps vs Dark-TiO2): 198.82% | Permeation ([2]; 450 + TiO2, pulse rate 8 cps): 2.17 μg/cm^2/24 hrs | Permeation ([2]; 450 + TiO2, pulse rate 24 cps): 1.48 μg/cm^2/24 hrs | Permeation ([2]; 450 + TiO2, pulse rate 80 cps): 5.08 μg/cm^2/24 hrs | Permeation ([2]; 450 nm LED, pulse rate 8 cps): 0.80 μg/cm^2/24 hrs | Permeation ([2]; 450 nm LED, pulse rate 24 cps): 1.19 μg/cm^2/24 hrs | Permeation ([2]; 450 nm LED, pulse rate 80 cps): 9.26 μg/cm^2/24 hrs | % Permeation (percent increase or decrease vs dark baseline, equation 1) ([2]; 450 nm, 8 cps vs Dark): 8.11% | % Permeation (percent increase or decrease vs dark baseline, equation 1) ([2]; 450 nm, 24 cps vs Dark): −40.80% | % Permeation (percent increase or decrease vs dark baseline, equation 1) ([2]; 450 nm, 80 cps vs Dark): 192.11% | Permeation ([2]; Dark control, 8 cps series): 0.74 μg/cm^2/24 hrs | Permeation ([2]; Dark control, 24 cps series): 2.01 μg/cm^2/24 hrs | Permeation ([2]; Dark control, 80 cps series): 3.17 μg/cm^2/24 hrs | Permeation ([2]; Dark-TiO2 control (2% TiO2), 8 cps series): 1.03 μg/cm^2/24 hrs | Permeation ([2]; Dark-TiO2 control (2% TiO2), 24 cps series): 1.36 μg/cm^2/24 hrs | Permeation ([2]; Dark-TiO2 control (2% TiO2), 80 cps series): 1.70 μg/cm^2/24 hrs | Permeation ([2]; Day (natural daylight, not pulsed), control of the 8 cps series): 0.84 μg/cm^2/24 hrs | Permeation ([2]; Day (natural daylight, not pulsed), control of the 24 cps series): 1.59 μg/cm^2/24 hrs | Permeation ([2]; Day (natural daylight, not pulsed), control of the 80 cps series): 2.52 μg/cm^2/24 hrs | % Permeation (percent increase or decrease vs dark baseline, equation 1) ([2]; Day vs Dark, 8 cps series): 13.51% | % Permeation (percent increase or decrease vs dark baseline, equation 1) ([2]; Day vs Dark, 24 cps series): −20.90% | % Permeation (percent increase or decrease vs dark baseline, equation 1) ([2]; Day vs Dark, 80 cps series): −20.50% | Permeation ([2]; Day-TiO2 (natural daylight, 2% TiO2, not pulsed), control of the 8 cps series): 0.70 μg/cm^2/24 hrs | Permeation ([2]; Day-TiO2 (natural daylight, 2% TiO2, not pulsed), control of the 24 cps series): 0.89 μg/cm^2/24 hrs | Permeation ([2]; Day-TiO2 (natural daylight, 2% TiO2, not pulsed), control of the 80 cps series): 4.09 μg/cm^2/24 hrs | % Permeation (percent increase or decrease vs dark baseline, equation 1) ([2]; Day-TiO2 vs Dark-TiO2, 8 cps series): −32.04% | % Permeation (percent increase or decrease vs dark baseline, equation 1) ([2]; Day-TiO2 vs Dark-TiO2, 24 cps series): −34.56% | % Permeation (percent increase or decrease vs dark baseline, equation 1) ([2]; Day-TiO2 vs Dark-TiO2, 80 cps series): 140.59%
